Active and inactive are the calls of the source.

Series [1] deals with Mus musculus. In words: Antinociceptive activity in Kunming mouse model assessed as latency of tail withdrawal at 134 nmol/kg, sc measured for 30 mins by tail-flick test relative to control. Type of series: functional. Particulars: 0.5 h. A general note: Hot-plate and tail-flick tests time the reaction to a heat stimulus.
The subject of series [2] is Mus musculus. In words: Antinociceptive activity in Kunming mouse model assessed as latency of tail withdrawal at 134 nmol/kg, sc measured for 60 mins by tail-flick test relative to control. It is filed as functional. Particulars: 1 h.
The target in series [3] is T1, Kappa-type opioid receptor (Homo sapiens, UniProt P41145). In words: Agonist activity at human KOR expressed in CHO-K1 cells co-expressing G-alpha15 upto 100 uM by calcium mobilization assay. Type of series: functional, cell-based. Background: Calcium flux is commonly read through the fluorescence of an indicator in the cells.
In series [4] the test system is Mus musculus. In words: Antinociceptive activity in Kunming mouse model assessed as latency of tail withdrawal at 134 nmol/kg, sc measured for 120 mins by tail-flick test relative to control. Particulars: 2 h. Type of series: functional.
The target in series [5] is T2, Mu-type opioid receptor (Homo sapiens, UniProt P35372). In words: Agonist activity at human MOR expressed in CHO-K1 cells co-expressing G-alpha15 by calcium mobilization assay. It is filed as functional, cell-based.
Series [6] deals with T2, Mu-type opioid receptor. Put plainly: Agonist activity at human MOR expressed in CHO-K1 cells co-expressing G-alpha15 by calcium mobilization assay relative to control. It is filed as functional, cell-based. Particulars: filed as agonist.
In series [7] the test system is Mus musculus. Put plainly: Antinociceptive activity in Kunming mouse model assessed as latency of tail withdrawal at 134 nmol/kg, sc measured for 10 mins by tail-flick test relative to control. Type of series: functional.
The target of series [8] is T3, Delta-type opioid receptor (Homo sapiens, UniProt P41143). In words: Agonist activity at human DOR expressed in CHO-K1 cells co-expressing G-alpha15 by calcium mobilization assay. Type of series: functional, cell-based.
Series [9] concerns Mus musculus. In words: Antinociceptive activity in Kunming mouse model assessed as latency of tail withdrawal at 1312 nmol/kg, sc measured for 10 mins by tail-flick test relative to control. Type of series: functional.
Series [10] has as its target T3, Delta-type opioid receptor. Put plainly: Agonist activity at human DOR expressed in CHO-K1 cells co-expressing G-alpha15 by calcium mobilization assay relative to control. Type of series: functional, cell-based. Particulars: filed as agonist.
The subject of series [11] is Mus musculus. In words: Antinociceptive activity in Kunming mouse model assessed as latency of tail withdrawal at 1312 nmol/kg, sc measured for 60 mins by tail-flick test relative to control. It is filed as functional. As to conditions: 1 h.
For series [12], the system named is Mus musculus. Put plainly: Antinociceptive activity in Kunming mouse model assessed as latency of tail withdrawal at 1312 nmol/kg, sc measured for 120 mins by tail-flick test relative to control. As to conditions: 2 h. Type of series: functional.
Series [13] relates to Mus musculus. Put plainly: Antinociceptive activity in Kunming mouse model assessed as latency of tail withdrawal at 1312 nmol/kg, sc measured for 30 mins by tail-flick test relative to control. It is filed as functional. Particulars: 0.5 h.
In series [14] the test system is Mus musculus. In words: Antinociceptive activity in Kunming mouse model assessed as latency of tail withdrawal at 136.2 nmol/kg, sc measured for 10 mins by tail-flick test relative to control. Type of series: functional.
Series [15] concerns Mus musculus. Put plainly: Antinociceptive activity in Kunming mouse model assessed as latency of tail withdrawal at 136.2 nmol/kg, sc measured for 120 mins by tail-flick test relative to control. It is filed as functional. As to conditions: 2 h.
Series [16] deals with Mus musculus. In words: Antinociceptive activity in Kunming mouse model assessed as latency of tail withdrawal at 136.2 nmol/kg, sc measured for 60 mins by tail-flick test relative to control. It is filed as functional. As to conditions: 1 h.
In series [17] the test system is Mus musculus. In words: Antinociceptive activity in Kunming mouse model assessed as latency of tail withdrawal at 136.2 nmol/kg, sc measured for 30 mins by tail-flick test relative to control. Type of series: functional. As to conditions: 0.5 h.
Series [18] has as its system Mus musculus. In words: Antinociceptive activity in Kunming mouse model at 13.9 nmol/kg, sc pretreated with NALM subcutaneously followed by compound administration by tail-flick test. It is filed as functional, organism-based.
The subject of series [19] is Mus musculus. In words: Rewarding affect in Kunming mouse model at 139 nmol/kg, sc pre-exposed to place conditioning for 3 days followed by compound administration and further re-exposed to place conditioning measured on day 5 by unbiased CPP method. It is filed as functional, organism-based. Particulars: time 2.0 day.
Series [20] concerns Mus musculus. In words: Antinociceptive activity in Kunming mouse model at 13.9 nmol/kg, sc in presence of beta-FNA by tail-flick test. It is filed as functional, organism-based.
The nature of series [21]: Stability in mouse plasma assessed as half life at 0.01 mol/L measured for 72 hrs by RP-HPLC analysis. Type of series: ADME, cell-free.
Series [22] has as its target T1, Kappa-type opioid receptor. Put plainly: Agonist activity at human KOR expressed in CHO-K1 cells co-expressing G-alpha15 by calcium mobilization assay relative to control. It is filed as functional, cell-based. As to conditions: filed as agonist.
Series [23] concerns Mus musculus. In words: Antinociceptive activity in Kunming mouse model administered subcutaneously by tail-flick test. Type of series: functional. Particulars: route sc.
Series [24] deals with Mus musculus. Put plainly: Antinociceptive activity in Kunming mouse model assessed as latency of tail withdrawal at 13.9 nmol/kg, sc measured for 120 mins by tail-flick test relative to control. Type of series: functional. Particulars: 2 h.
For series [25], the system named is Mus musculus. In words: Antinociceptive activity in Kunming mouse model at 13.9 nmol/kg, sc in presence of NTI by tail-flick test. It is filed as functional, organism-based.
Series [26] has as its system Mus musculus. In words: Antinociceptive activity in Kunming mouse model assessed as increase in analgesic effect at 0.14 to 13.9 nmol/kg, sc measured for 180 to 360 mins by tail-flick test. Type of series: functional, organism-based. As to conditions: dose 0.14-13.9 nmol/kg, time 180-360 min.
Series [27] concerns Mus musculus. In words: Antinociceptive activity in Kunming mouse model assessed as latency of tail withdrawal at 13.9 nmol/kg, sc measured for 60 mins by tail-flick test relative to control. It is filed as functional. As to conditions: 1 h.
Series [28] deals with Mus musculus. In words: Antinociceptive activity in Kunming mouse model administered subcutaneously measured for 5 to 15 mins by acetic acid-induced writhing test. Type of series: functional. Particulars: route sc, time 5-15 min. In general terms: Writhing tests count abdominal constrictions after an irritant is injected.
Series [29] has as its target T1, Kappa-type opioid receptor. Put plainly: Agonist activity at human KOR expressed in CHO-K1 cells co-expressing G-alpha15 by calcium mobilization assay. As to conditions: cho-k1. Type of series: functional, cell-based.
Series [30] concerns Mus musculus. In words: Antinociceptive activity in Kunming mouse model assessed as latency of tail withdrawal at 13.9 nmol/kg, sc measured for 10 mins by tail-flick test relative to control. Type of series: functional.
Series [31] deals with Mus musculus. Put plainly: Antinociceptive activity in Kunming mouse model at 13.9 nmol/kg, sc in presence of nor-BNI by tail-flick test. Type of series: functional, organism-based.
For series [32], the system named is Mus musculus. In words: Antinociceptive activity in Kunming mouse model assessed as latency of tail withdrawal at 13.9 nmol/kg, sc measured for 30 mins by tail-flick test relative to control. As to conditions: 0.5 h. It is filed as functional.
Series [33] relates to Mus musculus. In words: Antinociceptive activity in Kunming mouse model at 13.9 nmol/kg, sc pretreated with NALM intracerebroventricularly followed by compound administration by tail-flick test. Type of series: functional, organism-based.
The test system of series [34] is Mus musculus. In words: Induction of physical dependence in Kunming mouse model assessed as jumping behavior at 5.5 to 275 nmol/kg, sc administered as 7 escalating doses with 8 hr-intervals in-between followed by Nal administration post-2 hrs of last compound dose and further measured for 30 mins by withdrawal assay. It is filed as functional, organism-based. Particulars: dose 5.5-275 nmol/kg, time 50.5 hrs.

T1 sequence (P41145 whole entry): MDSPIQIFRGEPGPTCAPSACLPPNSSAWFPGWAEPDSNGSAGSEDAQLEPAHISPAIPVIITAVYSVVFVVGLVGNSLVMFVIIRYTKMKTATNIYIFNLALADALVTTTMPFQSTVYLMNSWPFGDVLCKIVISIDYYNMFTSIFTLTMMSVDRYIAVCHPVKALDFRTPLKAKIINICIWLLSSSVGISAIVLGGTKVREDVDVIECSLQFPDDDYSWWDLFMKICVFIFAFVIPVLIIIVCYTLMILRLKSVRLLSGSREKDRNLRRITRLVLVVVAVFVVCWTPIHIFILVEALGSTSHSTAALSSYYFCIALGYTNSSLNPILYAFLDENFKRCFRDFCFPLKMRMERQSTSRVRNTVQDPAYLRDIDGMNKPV
T3 sequence (P41143 whole entry): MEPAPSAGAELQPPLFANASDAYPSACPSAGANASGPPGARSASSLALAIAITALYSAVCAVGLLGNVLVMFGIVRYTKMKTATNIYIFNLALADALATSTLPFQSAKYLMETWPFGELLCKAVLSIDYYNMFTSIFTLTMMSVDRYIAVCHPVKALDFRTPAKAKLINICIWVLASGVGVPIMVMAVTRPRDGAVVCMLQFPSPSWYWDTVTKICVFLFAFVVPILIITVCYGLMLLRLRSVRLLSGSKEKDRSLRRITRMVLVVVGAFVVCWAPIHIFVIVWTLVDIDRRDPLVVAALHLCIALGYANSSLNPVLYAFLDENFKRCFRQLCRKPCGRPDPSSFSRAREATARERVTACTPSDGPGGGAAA
T2 sequence (P35372 whole entry): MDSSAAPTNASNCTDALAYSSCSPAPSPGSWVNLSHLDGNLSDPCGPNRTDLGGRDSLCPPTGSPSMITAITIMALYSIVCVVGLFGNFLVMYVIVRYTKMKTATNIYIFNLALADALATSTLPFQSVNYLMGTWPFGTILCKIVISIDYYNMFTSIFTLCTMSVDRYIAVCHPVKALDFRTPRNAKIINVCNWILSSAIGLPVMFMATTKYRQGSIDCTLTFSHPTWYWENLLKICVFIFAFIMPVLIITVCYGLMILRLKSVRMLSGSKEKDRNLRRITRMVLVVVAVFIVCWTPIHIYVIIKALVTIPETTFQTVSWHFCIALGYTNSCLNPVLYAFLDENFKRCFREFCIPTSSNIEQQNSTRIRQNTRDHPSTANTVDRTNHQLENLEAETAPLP

`NC(=O)[C@@H]1CCCN1C(=O)[C@H]1CC(=O)NCCCC[C@@H](NC(=O)[C@@H](N)Cc2ccc(O)cc2)C(=O)N2CCC[C@H]2C(=O)N[C@@H](Cc2ccccc2)C(=O)N1`: the MPE with Mus musculus [1] stood at 88%; in the series with Mus musculus [2], 84.5%; in the series on Mus musculus [4], 46.1%; in the series on Mus musculus [7], 57.9%. In addition, the outcome in [3] was inactive. Moreover, on Mu-type opioid receptor [5], the EC50 stood at 2090 nM. Further, on Mu-type opioid receptor [6], the Emax is 83.6%.
Regarding `CCCC[C@@H]1NC(=O)[C@H](NC(=O)[C@@H](N)Cc2ccc(O)cc2)CCCCNC(=O)C[C@H](C(=O)N2CCC[C@H]2C(N)=O)NC(=O)[C@H](Cc2ccccc2)NC1=O`, the EC50 in series [8] was determined as 20 nM; on Mu-type opioid receptor [5], 2170 nM. Moreover, the MPE came out at 50.4% in the series on Mus musculus [9], 75.1% in the series with Mus musculus [11], 28% in the series on Mus musculus [12] and 90% in the series on Mus musculus [13]. Besides, the Emax was 83.9% in series [10] and 88.6% on Mu-type opioid receptor [6].
For the compound `CC1(C)NC(=O)[C@H](NC(=O)[C@@H](N)Cc2ccc(O)cc2)CCCCNC(=O)C[C@@H](C(=O)N2CCC[C@@H]2C(N)=O)NC(=O)[C@H](Cc2ccccc2)NC1=O`, the MPE worked out at 48.9% with Mus musculus [14], 46.1% in the series on Mus musculus [15], 69.3% in the series on Mus musculus [16] and 91.1% in the series on Mus musculus [17].
For `NC(=O)[C@@H]1CCCCN1C(=O)[C@H]1CC(=O)NCCCC[C@@H](NC(=O)[C@@H](N)Cc2ccc(O)cc2)C(=O)NCC(=O)N[C@@H](Cc2ccccc2)C(=O)N1`, the result in the series with Mus musculus [18], in the series with Mus musculus [25] and in the series with Mus musculus [26] was Active. Moreover, the result in the series on Mus musculus [19], with Mus musculus [20], in the series on Mus musculus [31], with Mus musculus [33] and with Mus musculus [34] was inactive. The EC50 in [8] (cho-k1) came to 0.2 nM; at Mu-type opioid receptor [5] (cho-k1), 0.9 nM; in [29] it was 214 nM. Further, the half-life at 0.01 mol/L in series [21] was 18.5 days. For the same compound, the results for the maximal response (Emax) (in [22]; in series [10]; at Mu-type opioid receptor [6]) were 99.5%, 101% and 107%, respectively. The figures for the ED50 with Mus musculus [23] and with Mus musculus [28] were 0.0007 µmol/kg and 0.0055 µmol/kg, respectively. In addition, the MPE in the series with Mus musculus [24] is reported as 56.6%; with Mus musculus [27], 86.9%; in the series with Mus musculus [30], 73.1%; with Mus musculus [32], 91.2%.

In general, EC50 refers to the concentration giving half of the maximal effect. Broadly, the Emax is the greatest response seen or fitted, relative to the assay's reference. Usually half-life stands for the time needed for the level to fall by half in the phase considered. Broadly, the ED50 is the midpoint of the dose-response relation. A higher ED50 goes with a need for a large dose.

The values above are taken from ChEMBL document CHEMBL5532665 (J Med Chem, 2024).
